# Measurements published in patent EP0234946A2, “New compounds” (THE WELLCOME FOUNDATION LIMITED, priority 1986, dated 1987).
# Biological target: T1, angiotensin converting enzyme (Cavia porcellus, UniProt H0UWL7)
# T1 construct: from tissue; host or cells: guinea pig ileum
# T1 sequence (H0UWL7 33-1302): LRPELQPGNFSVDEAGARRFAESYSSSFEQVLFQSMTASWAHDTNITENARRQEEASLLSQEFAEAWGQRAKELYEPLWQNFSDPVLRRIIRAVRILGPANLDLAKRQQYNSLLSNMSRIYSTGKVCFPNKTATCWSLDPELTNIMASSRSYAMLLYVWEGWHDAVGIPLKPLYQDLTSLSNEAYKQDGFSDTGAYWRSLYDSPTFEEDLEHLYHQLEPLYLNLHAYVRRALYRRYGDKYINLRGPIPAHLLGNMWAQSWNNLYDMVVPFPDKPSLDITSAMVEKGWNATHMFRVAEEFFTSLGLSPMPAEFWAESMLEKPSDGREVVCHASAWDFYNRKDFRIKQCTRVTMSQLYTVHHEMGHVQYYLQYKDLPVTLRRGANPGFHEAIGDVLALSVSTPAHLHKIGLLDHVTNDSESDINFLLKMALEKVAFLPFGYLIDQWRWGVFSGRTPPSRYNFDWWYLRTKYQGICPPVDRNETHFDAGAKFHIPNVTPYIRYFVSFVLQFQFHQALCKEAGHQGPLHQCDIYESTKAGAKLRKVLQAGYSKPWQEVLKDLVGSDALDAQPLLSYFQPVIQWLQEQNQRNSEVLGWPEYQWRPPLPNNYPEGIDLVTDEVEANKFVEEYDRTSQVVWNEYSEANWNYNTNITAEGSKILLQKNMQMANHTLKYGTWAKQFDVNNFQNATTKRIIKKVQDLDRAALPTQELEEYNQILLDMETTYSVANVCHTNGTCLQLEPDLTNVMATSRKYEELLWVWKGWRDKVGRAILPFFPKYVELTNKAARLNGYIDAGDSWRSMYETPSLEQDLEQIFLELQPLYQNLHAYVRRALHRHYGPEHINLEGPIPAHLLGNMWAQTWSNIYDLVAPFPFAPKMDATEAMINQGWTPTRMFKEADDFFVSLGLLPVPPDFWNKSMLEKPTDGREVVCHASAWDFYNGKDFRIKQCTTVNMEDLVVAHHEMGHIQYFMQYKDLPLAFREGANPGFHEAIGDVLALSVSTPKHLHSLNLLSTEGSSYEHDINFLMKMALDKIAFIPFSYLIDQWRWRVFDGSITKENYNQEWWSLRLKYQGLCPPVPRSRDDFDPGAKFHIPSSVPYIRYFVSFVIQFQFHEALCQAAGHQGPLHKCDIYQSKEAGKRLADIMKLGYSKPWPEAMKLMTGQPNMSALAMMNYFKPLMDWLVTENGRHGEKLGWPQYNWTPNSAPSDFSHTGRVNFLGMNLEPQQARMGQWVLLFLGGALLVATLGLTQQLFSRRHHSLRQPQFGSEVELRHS
# Assay: angiotensin converting enzyme inhibition in guinea pig ileum (inhibition of contractile responses to Angiotensin I)
# Conditions: dose-dependent inhibition of contractile responses to Angiotensin I, read-out: EC50 (the source's name)
# Source text: (b) ACE inhibition in vitro
# In an assay for angiotensin converting enzyme inhibition in guinea pig ileum, dose-dependent inhibition of contractile responses to Angiotensin I gave the following results: […]
row,IC50 [nM],SMILES
1,10.3,"CC(C)NCC(O)COc1cccc2ccc(C(=O)NCCCC[C@H](NC(C)C(=O)N3CCC[C@H]3C(=O)O)C(=O)O)cc12 (stereo partly drawn) [Example 3, N-(1(S)-Carboxy-5-[8-(2(R,S)-hydroxy-3-isopropylaminopropoxy)naphth-2--ylcarboxamido]pentyl)-(R,S)-alanyl-(S)-proline bistrifluoroacetate]"
2,13.5,"CC(C)NCC(O)COc1cccc2cc(C(=O)NCCCC[C@H](NC(C)C(=O)N3CCC[C@H]3C(=O)O)C(=O)O)ccc12 (stereo partly drawn) [Example 2, N-(1(S)-Carboxy-5-[5-(2,(R,S)-hydroxy-3-isopropylaminopropoxy)naphth-2-ylcarboxamido]pentyl)-(R,S)-alanyl-(S)-proline bistrifluoroacetate]"
3,1.4,"CC(C)NC[C@H](O)COc1cccc2[nH]c(C(=O)NCCCC[C@H](N[C@@H](C)C(=O)N3CCC[C@H]3C(=O)O)C(=O)O)cc12 [Example 1, N-(1(S)-Carboxy-5-[4-(2(S)-hydroxy-3-isopropylaminopropoxy)-1H-indol-2-ylcarboxamido]pentyl)-(S)-alanyl-(S)-proline]"
